The results in this text go back to US8008077B2, “Photochemical internalization for delivery of molecules into the cytosol” (priority 2000, dated 2011).

One assay deals with THX cells. Kind of assay: Light-induced (PCI) transfection of THX cells with pEGFP-N1/polylysine complex, GFP expression by flow cytometry. It counts as cell-based, human. The settings on record: for "light before" approach compared with "light after" approach, poly-L-lysine mediated transfection: photosensitiser 2 μg/ml TPPS2a or 75 μg/ml TPPS4, pEGFP-N1/PLL complex 4 h. On the procedure:
(§1) The human melanoma cell line THX was established from tumour tissue obtained from a patient treated for metastatic malignant melanoma at the Norwegian Radium Hospital (Aamdal et al., 1986., Int. J. Cancer, 37, 579), and grown in RMPI 1640 (Gibco-BRL) supplemented with 10% FCS (Gibco-BRL) and 2 mM glutamine (Gibco-BRL). The human colon carcinoma cell line HCT 116 was obtained from American Type Culture Collection (ATCC no. CCL-247) and grown in RPMI 1640 medium supplemented with 10% foetal calf serum, 100 U/ml penicillin, […] streptomycin and 2 mM glutamine (all Gibco BRL, Paisley, UK).
Two different light sources were used for treatment of the cells, both consisting of a bank of 4 fluorescent tubes. […]
(§2) The cells were trypsinized, centrifuged, resuspended in 400 μl of culture medium and filtered through a 50 μm mesh nylon filter. Then the cells were analyzed by a FACS-Calibur (Becton Dickinson) flow cytometer. […] Fluorescein-fluorescence (for example green Fluorescent protein (GFP)) was measured through a 510-530 nm filter after excitation with an argon laser (200 mW) tuned on 488 nm. AlPcS2a was measured through a 670 nm longpass filter after excitation with a diode laser (50 mW) tuned on 635 nm. […] The data were analysed with CELLQuest Software (Becton Dickinson).
THX cells were treated with 20 μg/ml AlPcS2a for 18 hours, washed and incubated in sensitizer-free medium for 3 hours followed by 1 hour incubation with 5 μg pEGFP-N1/polylysine complex before light exposure for 1, 2, 3 or 4 minutes. […] GFP expression was analysed by flow cytometry 48 hours after light exposure. […]
THX cells were treated with 20 μg/ml AlPcS2a for 18 hours, washed and incubated in sensitizer-free medium for 4 hours before 3 minutes of light treatment. […] GFP expression was analysed by flow cytometry 48 hours after light exposure. […]
(In flow cytometry, cells or beads pass a laser one at a time.)

The test system of another assay is HCT 116 cells. The assay can be described thus: Light-induced (PCI) transfection of HCT 116 cells with pEGFP-N1/polylysine complex, GFP expression by flow cytometry. It counts as cell-based, human. On the procedure: as §1
Two different light sources were used for treatment of the cells, both consisting of a bank of 4 fluorescent tubes. Cells treated with TPPS4, TPPS2a, and 3-THPP (Porphyrin Products, Logan, Utah) were exposed to blue light (model 3026; Appl. Photophysics, London, UK) with a light intensity reaching the cells of 1.5 mW/cm^2 while cells treated with AlPcS2a (Porphyrin Products, Logan, Utah) were exposed to red light (Philips TL 20W/09) filtered through a Cinemoid 35 filter with a light intensity reaching the cells of 1.35 mW/cm^2.
[…] The cells were treated with pEGFP-N1 polylysine complex for 4 hours immediately before or after exposure to light. […]
as §2
The cells were treated with pEGFP-N1/polylysine complex for 4 hours immediately before or after exposure to light as indicated on FIG. 2. The expression of GFP was measured by flow cytometry 2 days after the light exposure. […]

As to `Oc1cccc(-c2c3nc(c(-c4cccc(O)c4)c4ccc([nH]4)c(-c4cccc(O)c4)c4nc(c(-c5cccc(O)c5)c5ccc2[nH]5)C=C4)C=C3)c1` [3-THPP], the “increase in GFP expression with this photosensitizer” value in the assay on THX cells (0.25 μg/ml 3-THPP 18 h, light before 1 h pEGFP-N1/polylysine complex) is listed as “only a minor increase in GFP expression”.

Take `O=S(=O)(O)c1ccc(-c2c3nc(c(-c4ccc(S(=O)(=O)O)cc4)c4ccc([nH]4)c(-c4ccccc4)c4nc(c(-c5ccccc5)c5ccc2[nH]5)C=C4)C=C3)cc1` [TPPS2a, Tetraphenylporphine disulfonate]: the “"light before" approach compared with "light after" approach, poly-L-lysine mediated transfection” value is given as “works as well as” with THX cells and “works as well as” in the assay on HCT 116 cells (HCT 116 cells, TPPS2a, pEGFP-N1/PLL complex 4 h).

In the case of `O=S(=O)(O)c1ccc(-c2c3nc(c(-c4ccc(S(=O)(=O)O)cc4)c4ccc([nH]4)c(-c4ccc(S(=O)(=O)O)cc4)c4nc(c(-c5ccc(S(=O)(=O)O)cc5)c5ccc2[nH]5)C=C4)C=C3)cc1` [TPPS4], the “"light before" approach compared with "light after" approach, poly-L-lysine mediated transfection” value in the assay on THX cells was “works slightly better”; in the assay on HCT 116 cells (75 μg/ml TPPS4, text prints THX cells, heading and FIG. 19 HCT 116 cells), “works as well as”.

Consider poly-D-lysine, for which the “PCI with the "light before" protocol, poly-D-lysine as transfection agent” value in the assay on HCT 116 cells (HCT 116 cells, complex with pEGFP-N1, variable irradiation times) is “works well”.
